According to the supplement of paper PMC10307832:

Legend:
Assay in all cases: relative viability (nuclei count vs DMSO), 5 days (fraction); higher = more cells survive
[1] = compound: CN1CCN(CC1)C2=CC(=C(C=C2)NC3=NC=C4C(=N3)N(C5=CC=CC=C5C(=O)N4C)C)OC [XMD8-85] + O=C(c1cc(Cc2n[nH]c(=O)c3ccccc23)ccc1F)N1CCN(C(=O)C2CC2)CC1 [Olaparib] (partner 8 µM)
In short: (§1)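 Lung cancer cell lines were seeded in 1536-well plates and dosed by pin tool the next day, with either a single drug or a fixed anchor-drug dose combined with five library-drug doses (not always all listed) spaced in √10 steps. Five days later, one step fixed the cells and stained their nuclei (final 0.05% Triton X-100, 1% formaldehyde, 1 ug/ml Hoechst), and nuclei were counted on 4× images. Relative viability is the nuclei count in treated wells divided by the count in vehicle wells, and each value is the median of duplicate plates.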

[2] = compound: CN1CCN(CC1)C2=CC(=C(C=C2)NC3=NC=C4C(=N3)N(C5=CC=CC=C5C(=O)N4C)C)OC [XMD8-85] + Nc1nc2[nH]cc(CCc3ccc(C(=O)N[C@@H](CCC(=O)O)C(=O)O)cc3)c2c(=O)[nH]1 [Pemetrexed] (partner 0.2 µM)
In short: as §1

[3] = compound: O=C(O)C(Cc1ccccc1[N+](=O)[O-])=NNc1nc(-c2ccc(Cl)c(Cl)c2)cs1 (mixture of isomers) [4EGI-1] + N=C(N)NC(=N)NCCc1ccccc1 [Phenformin] (partner 250 µM)
In short: as §1

[4] = compound: CN1CCN(CC1)C2=CC(=C(C=C2)NC3=NC=C4C(=N3)N(C5=CC=CC=C5C(=O)N4C)C)OC [XMD8-85] + Nc1ncn([C@H]2C[C@H](O)[C@@H](CO)O2)c(=O)n1 [Decitabine] (partner 2 µM)
In short: as §1

NCI-H1792
relative viability ([1]; first compound 0.253 µM): 0.526
relative viability ([1]; first compound 0.8 µM): 0.298
relative viability ([1]; first compound 2.53 µM): 0.284
relative viability ([1]; first compound 8 µM): 0.318
relative viability ([2]; first compound 0.253 µM): 0.439
relative viability ([2]; first compound 0.8 µM): 0.889
relative viability ([2]; first compound 2.53 µM): 0.924
relative viability ([2]; first compound 8 µM): 0.818
relative viability ([3]; first compound 0.5 µM): 0.285
relative viability ([3]; first compound 1.581 µM): 0.462
relative viability ([3]; first compound 5 µM): 0.41
relative viability ([3]; first compound 15.81 µM): 0.322
relative viability ([3]; first compound 50 µM): 0.378
relative viability ([4]; first compound 0.253 µM): 0.468
relative viability ([4]; first compound 0.8 µM): 0.525
relative viability ([4]; first compound 2.53 µM): 0.504
relative viability ([4]; first compound 8 µM): 0.361
